Values of other authors as cited in patent US6867034B2, “Methods of screening novel agents for use in cancer therapy and prevention” (The Curators of The University of Missouri, priority 2000, dated 2005).

How the values were obtained:
repB = details: after cisplatin treatment, versus basal levels
repD = details: after cisplatin treatment, versus basal levels
Dictyostelium cells = details: 300 μM cisplatin

Structure (SMILES): N.N.[Cl][Pt][Cl] [cisplatin]
- levels of repB mRNA (repB): rapidly increase from basal levels
- levels of repD mRNA (repD): rapidly increase from basal levels
- viability of the cells (Dictyostelium cells): reduced by three orders of magnitude
